Earlier results, collected in patent publication US20120122237A1, “HOMOGENEOUS NONCOMPETITIVE DETECTION OF POST TRANSLATIONAL MODIFICATIONS FOR USE IN HIGH THROUGHPUT ASSAYS” (priority 2010, published 2012).

How the values were obtained:
[1] = tested on: Polyclonal antibody for 3-PBA
[2] = tested on: Polyclonal antibody for 3-PBA; settings: competitive ELISA
[3] = tested on: Monoclonal Antibody for Atrazine; settings: competitive ELISA
[4] = tested on: Monoclonal Antibody for Atrazine

| Compound | Crossreactivity (%) PHAIA [1] [%] | Crossreactivity (%) ELISA [2] [%] | Crossreactivity (%) ELISA [3] [%] | Crossreactivity (%) PHAIA [4] [%] |
| --- | --- | --- | --- | --- |
| O=Cc1cccc(Oc2ccccc2)c1 [3-pheonoxy aldehyde] | 3 | 10 | – | – |
| CCNc1nc(Cl)nc(NCC)n1 [simazine] | – | – | 48 | 0 |
| O=C(O)c1cccc(Oc2ccccc2)c1 [3-PBA, 3-phenoxybenzoic acid] | 100 | 100 | – | – |
| CCNc1nc(Cl)nc(NC(C)(C)C#N)n1 [cyanazine] | – | – | 91 | 0 |
| CC(C)Nc1nc(Cl)nc(NC(C)C)n1 [propazine] | – | – | 116 | 144 |
| CCNc1nc(Cl)nc(NC(C)C)n1 [atrazine] | – | – | 100 | 100 |
| 4-hydroxy 3-PBA | 0 | 98 | – | – |
